We go through 58 compounds from patent US9226500B2, “Pesticidal compositions and processes related thereto” (Dow AgroSciences LLC, priority 2012, dated 2016).

The assay has as its system Beet Armyworm (Spodoptera exigua). In words: Bioassay on Beet Armyworm (BAW), 128-well diet tray assay. It counts as in vivo. Conditions: Table 3, Assays Results Part 1. As to the method:
Certain molecules disclosed in this document were tested against BAW, CEW and CL using procedures described in the following examples. In the reporting of the results, the “BAW & CEW & CL Rating Table” was used (See Table Section).
Bioassays on BAW (Spodoptera exigua)
Bioassays on BAW were conducted using a 128-well diet tray assay. One to five second instar BAW larvae were placed in each well (3 mL) of the diet tray that had been previously filled with 1 mL of artificial diet to which 50 μg/cm^2 of the test compound (dissolved in 50 μL of 90:10 acetone-water mixture) had been applied (to each of eight wells) and then allowed to dry. Trays were covered with a clear self-adhesive cover, and held at 25° C., 14:10 light-dark for five to seven days. Percent mortality was recorded for the larvae in each well; activity in the eight wells was then averaged. The results are indicated in the tables entitled “Table 3: Assay Results Part 1” and “Table 4: Assay Results Part 2” (See Table Section).
For the compound `Cc1cc(/C=C/C(c2cc(Cl)cc(Cl)c2)C(F)(F)F)ccc1C(=O)NCc1ccc(Cl)nc1` (stereo not shown) [AC7], the “BAW Rating” value is “A (50-100)”.

In the case of `Cc1cc(/C=C/C(c2cc(Cl)cc(Cl)c2)C(F)(F)F)ccc1C(=O)NCc1ccccc1F` (stereo not shown) [AC9], the “BAW Rating” value was “A (50-100)”.

Take `Cc1cc(/C=C/C(c2cc(Cl)cc(Cl)c2)C(F)(F)F)ccc1C(=O)NC1CSC1` (stereo not shown) [AC10]: the “BAW Rating” value was “A (50-100)”.

Regarding `Cc1cc(/C=C/C(c2cc(Cl)cc(Cl)c2)C(F)(F)F)ccc1C(=O)NCc1ccccc1` (stereo not shown) [AC11], the “BAW Rating” value is recorded as “A (50-100)”.

In the case of `Cc1cc(/C=C/C(c2cc(Cl)cc(Cl)c2)C(F)(F)F)ccc1C(=O)NCc1ccccn1` (stereo not shown) [AC12], the “BAW Rating” value is “A (50-100)”.

With `Cc1cc(/C=C/C(c2cc(Cl)cc(Cl)c2)C(F)(F)F)ccc1C(=O)NC1CS(=O)(=O)C1` (stereo not shown) [AC13], the “BAW Rating” value is recorded as “A (50-100)”.

Take `Cc1cc(/C=C/C(c2cc(Cl)cc(Cl)c2)C(F)(F)F)ccc1C(=O)NCc1cnc(Cl)s1` (stereo not shown) [AC15]: the “BAW Rating” value is on record as “A (50-100)”.

Take `Cc1cc(/C=C/C(c2cc(Cl)cc(Cl)c2)C(F)(F)F)ccc1C(=O)NC(C)(C)c1ccccn1` (stereo not shown) [AC16]: the “BAW Rating” value is “A (50-100)”.

Turning to `Cc1cc(/C=C/C(c2cc(Cl)cc(Cl)c2)C(F)(F)F)ccc1C(=O)NNc1ccccc1F` (stereo not shown) [AC17], the “BAW Rating” value is on record as “A (50-100)”.

`Cc1cc(/C=C/C(c2cc(Cl)cc(Cl)c2)C(F)(F)F)ccc1C(=O)NCc1ncccn1` (stereo not shown) [AC18]: the “BAW Rating” value is recorded as “A (50-100)”.

As for `Cc1cc(/C=C/C(c2cc(Cl)cc(Cl)c2)C(F)(F)F)ccc1C(=O)NCc1ccoc1` (stereo not shown) [AC20], the “BAW Rating” value is listed as “A (50-100)”.

As to `Cc1cc(/C=C/C(c2cc(Cl)c(Cl)c(Cl)c2)C(F)(F)F)ccc1C(=O)NCc1ccc(Cl)nc1` (stereo not shown) [AC22], the “BAW Rating” value is reported as “A (50-100)”.

Turning to `Cc1cc(/C=C/C(c2cc(Cl)c(Cl)c(Cl)c2)C(F)(F)F)ccc1C(=O)NC1CSC1` (stereo not shown) [AC23], the “BAW Rating” value is recorded as “A (50-100)”.

Turning to `Cc1cc(/C=C/C(c2cc(Cl)c(Cl)c(Cl)c2)C(F)(F)F)ccc1C(=O)NCc1cnc(Cl)s1` (stereo not shown) [AC26], the “BAW Rating” value is listed as “A (50-100)”.

On to `Cc1cc(/C=C/C(c2cc(Cl)c(Cl)c(Cl)c2)C(F)(F)F)ccc1C(=O)NC(C)(C)c1ccccn1` (stereo not shown) [AC27], for which the “BAW Rating” value is given as “A (50-100)”.

For the compound `O=C(NCc1ccc(Cl)nc1)c1ccc(/C=C/C(c2cc(Cl)c(Cl)c(Cl)c2)C(F)(F)F)cc1Cl` (stereo not shown) [AC28], the “BAW Rating” value is reported as “A (50-100)”.

As to `O=C(NC1CSC1)c1ccc(/C=C/C(c2cc(Cl)c(Cl)c(Cl)c2)C(F)(F)F)cc1Cl` (stereo not shown) [AC29], the “BAW Rating” value is listed as “A (50-100)”.

As to `O=C(NC1CS(=O)(=O)C1)c1ccc(/C=C/C(c2cc(Cl)c(Cl)c(Cl)c2)C(F)(F)F)cc1Cl` (stereo not shown) [AC30], the “BAW Rating” value is “A (50-100)”.

Consider `O=C(NCc1ccc(Cl)nc1)c1ccc(/C=C/C(c2cc(Cl)c(Cl)c(Cl)c2)C(F)(F)F)cc1Br` (stereo not shown) [AC31], for which the “BAW Rating” value is reported as “A (50-100)”.

Turning to `O=C(NC1CSC1)c1ccc(/C=C/C(c2cc(Cl)c(Cl)c(Cl)c2)C(F)(F)F)cc1Br` (stereo not shown) [AC32], the “BAW Rating” value is “A (50-100)”.

In the case of `O=C(NC1CS(=O)(=O)C1)c1ccc(/C=C/C(c2cc(Cl)c(Cl)c(Cl)c2)C(F)(F)F)cc1Br` (stereo not shown) [AC33], the “BAW Rating” value is listed as “A (50-100)”.

Regarding `O=C(NC1CSC1)c1ccc(/C=C/C(c2cc(Cl)c(Cl)c(Cl)c2)C(F)(F)F)cc1C(F)(F)F` (stereo not shown) [AC34], the “BAW Rating” value is given as “A (50-100)”.

Take `O=C(NC1CS(=O)(=O)C1)c1ccc(/C=C/C(c2cc(Cl)c(Cl)c(Cl)c2)C(F)(F)F)cc1C(F)(F)F` (stereo not shown) [AC35]: the “BAW Rating” value is “A (50-100)”.

In the case of `O=C(NCc1ccc(Cl)nc1)c1ccc(/C=C/C(c2cc(Cl)c(Cl)c(Cl)c2)C(F)(F)F)cc1C(F)(F)F` (stereo not shown) [AC36], the “BAW Rating” value is on record as “A (50-100)”.

`Cc1cc(/C=C/C(c2ccc(Cl)c(Cl)c2)C(F)(F)F)ccc1C(=O)NCc1ccc(Cl)nc1` (stereo not shown) [AC37]: the “BAW Rating” value is reported as “A (50-100)”.

As for `Cc1cc(/C=C/C(c2cc(Cl)c(F)c(Cl)c2)C(F)(F)F)ccc1C(=O)NCc1ccc(Cl)nc1` (stereo not shown) [AC38], the “BAW Rating” value is recorded as “A (50-100)”.

In the case of `Cc1cc(/C=C/C(c2cc(Cl)cc(Cl)c2)C(F)(F)F)ccc1C(=O)NCc1cncnc1` (stereo not shown) [AC39, 4-((E)-3-(3,5-Dichlorophenyl)-4,4,4-trifluorobut-1-enyl)-2-methyl-N-((pyrimidin-5-yl)methyl)benzamide], the “BAW Rating” value is reported as “A (50-100)”.

For the compound `Cc1cc(/C=C/C(c2cc(Cl)cc(Cl)c2)C(F)(F)F)ccc1C(=O)NCC(=O)NC1CC1` (stereo not shown) [AC40], the “BAW Rating” value is given as “A (50-100)”.

For the compound `Cc1cc(/C=C/C(c2cc(Cl)cc(Cl)c2)C(F)(F)F)ccc1C(=O)NCC(=O)NC1CSC1` (stereo not shown) [AC41], the “BAW Rating” value is “A (50-100)”.

Consider `Cc1cc(/C=C/C(c2cc(Cl)cc(Cl)c2)C(F)(F)F)ccc1C(=O)NCc1nc2ccccc2s1` (stereo not shown) [AC42], for which the “BAW Rating” value is “A (50-100)”.

Take `Cc1cc(/C=C/C(c2cc(Cl)cc(Cl)c2)C(F)(F)F)ccc1C(=O)NCc1cnccn1` (stereo not shown) [AC43]: the “BAW Rating” value is given as “A (50-100)”.

Take `Cc1cc(/C=C/C(c2cc(Cl)cc(Cl)c2)C(F)(F)F)ccc1C(=O)NN(C)c1ccccc1F` (stereo not shown) [AC45]: the “BAW Rating” value is “A (50-100)”.

In the case of `Cc1cc(/C=C/C(c2cc(Cl)cc(Cl)c2)C(F)(F)F)ccc1C(=O)NCc1ccc(Cl)cc1` (stereo not shown) [AC48], the “BAW Rating” value is “A (50-100)”.

On to `O=C(NCc1ccc(Cl)nc1)c1ccc(/C=C/C(c2cc(Cl)cc(Cl)c2)C(F)(F)F)cc1F` (stereo not shown) [AC49], for which the “BAW Rating” value is recorded as “A (50-100)”.

With `Cc1cc(/C=C/C(c2cc(Cl)cc(Cl)c2)C(F)(F)F)ccc1C(=O)NCc1nccn1C` (stereo not shown) [AC50], the “BAW Rating” value is “A (50-100)”.

Turning to `Cc1cc(/C=C/C(c2cc(Cl)cc(Cl)c2)C(F)(F)F)ccc1C(=O)NCC(=O)N(C)CC(F)(F)F` (stereo not shown) [AC51], the “BAW Rating” value is reported as “A (50-100)”.

For the compound `Cc1cc(/C=C/C(c2cc(Cl)c(F)c(Cl)c2)C(F)(F)F)ccc1C(=O)NC1CCOCC1` (stereo not shown) [AC52], the “BAW Rating” value is given as “A (50-100)”.

As to `Cc1cc(/C=C/C(c2cc(Cl)c(F)c(Cl)c2)C(F)(F)F)ccc1C(=O)NCc1ccc(Cl)cn1` (stereo not shown) [AC53], the “BAW Rating” value is “A (50-100)”.

For `Cc1cc(/C=C/C(c2cc(Cl)c(F)c(Cl)c2)C(F)(F)F)ccc1C(=O)NCc1ccnc(Cl)c1` (stereo not shown) [AC54], the “BAW Rating” value is listed as “A (50-100)”.

On to `CC(C)(C)OC(=O)CNC(=O)c1ccc(/C=C/C(c2cc(Cl)c(Cl)c(Cl)c2)C(F)(F)F)cc1Br` (stereo not shown) [AC58], for which the “BAW Rating” value is listed as “A (50-100)”.

As to `Cc1cc(/C=C/C(c2cc(Cl)cc(Cl)c2)C(F)(F)F)ccc1C(=O)Nc1ccc(Cl)nc1` (stereo not shown) [AC59], the “BAW Rating” value was “A (50-100)”.

`O=C(NC1CSC1)c1ccc(/C=C/C(c2cc(Cl)cc(Cl)c2)C(F)(F)F)cc1F` (stereo not shown) [AC61]: the “BAW Rating” value was “A (50-100)”.

Consider `O=C(CNC(=O)c1ccc(/C=C/C(c2cc(Cl)cc(Cl)c2)C(F)(F)F)cc1F)NCC(F)(F)F` (stereo not shown) [AC62], for which the “BAW Rating” value is “A (50-100)”.

Turning to `O=C(NCc1ccc(Cl)nc1)c1ccc(/C=C/C(c2cc(Cl)c(F)c(Cl)c2)C(F)(F)F)cc1Br` (stereo not shown) [AC63], the “BAW Rating” value is on record as “A (50-100)”.

Regarding `O=C(CNC(=O)c1ccc(/C=C/C(c2cc(Cl)c(Cl)c(Cl)c2)C(F)(F)F)cc1Cl)NCC(F)(F)F` (stereo not shown) [AC64, (E)-2-Chloro-N-(2-oxo-2-((2,2,2-trifluoroethyl)amino)ethyl)-4-(4,4,4-trifluoro-3-(3,4,5-trichlorophenyl)but-1-en-1-yl)benzamide], the “BAW Rating” value is “A (50-100)”.

Regarding `O=C(NCc1ccc(Cl)nc1)c1ccc(/C=C/C(c2cc(Cl)c(F)c(Cl)c2)C(F)(F)F)cc1F` (stereo not shown) [AC65], the “BAW Rating” value is reported as “A (50-100)”.

Turning to `O=C(CNC(=O)c1ccc(/C=C/C(c2cc(Cl)c(Cl)c(Cl)c2)C(F)(F)F)cc1Br)NCC(F)(F)F` (stereo not shown) [AC66], the “BAW Rating” value is “A (50-100)”.

For `O=C(NC1CSC1)c1ccc(/C=C/C(c2cc(Cl)c(F)c(Cl)c2)C(F)(F)F)cc1F` (stereo not shown) [AC67], the “BAW Rating” value is on record as “A (50-100)”.

Turning to `O=C(CNC(=O)c1ccc(/C=C/C(c2cc(Cl)c(F)c(Cl)c2)C(F)(F)F)cc1F)NCC(F)(F)F` (stereo not shown) [AC68], the “BAW Rating” value is on record as “A (50-100)”.

Turning to `Cc1cc(/C=C/C(c2cc(Cl)c(F)c(Cl)c2)C(F)(F)F)ccc1C(=O)NCC(=O)NCC(F)(F)F` (stereo not shown) [AC69], the “BAW Rating” value is “A (50-100)”.

In the case of `COc1cc(/C=C/C(c2cc(Cl)c(F)c(Cl)c2)C(F)(F)F)ccc1C(=O)NC1CSC1` (stereo not shown) [AC71], the “BAW Rating” value was “A (50-100)”.

As to `CCc1cc(/C=C/C(c2cc(Cl)c(F)c(Cl)c2)C(F)(F)F)ccc1C(=O)NCc1ccc(Cl)nc1` (stereo not shown) [AC72], the “BAW Rating” value is listed as “A (50-100)”.

Consider `O=C(NCc1ccc(C(F)(F)F)nc1)c1ccc(/C=C/C(c2cc(Cl)c(Cl)c(Cl)c2)C(F)(F)F)cc1Br` (stereo not shown) [AC75], for which the “BAW Rating” value is listed as “A (50-100)”.

Regarding `Cc1cc(/C=C/C(c2cc(Cl)c(F)c(Cl)c2)C(F)(F)F)ccc1C(=O)NCc1cc(Cl)ccn1` (stereo not shown) [AC77], the “BAW Rating” value is listed as “A (50-100)”.

In the case of `Cc1cc(/C=C/C(c2cc(Cl)c(Cl)c(Cl)c2)C(F)(F)F)ccc1C(=O)NCC(=O)NCC(F)(F)F` (stereo not shown) [AC78], the “BAW Rating” value is given as “A (50-100)”.

As for `O=C(CNC(=O)c1ccc(/C=C/C(c2cc(Cl)c(F)c(Cl)c2)C(F)(F)F)cc1Br)NCC(F)(F)F` (stereo not shown) [AC79, (E)-2-Bromo-4-(3-(3,5-dichloro-4-fluorophenyl)-4,4,4-trifluorobut-1-en-1-yl)-N-(2-oxo-2-((2,2,2-trifluoroethyl)amino)ethyl)benzamide], the “BAW Rating” value is “A (50-100)”.

For the compound `CCc1cc(/C=C/C(c2cc(Cl)c(F)c(Cl)c2)C(F)(F)F)ccc1C(=O)NCC(=O)NCC(F)(F)F` (stereo not shown) [AC80], the “BAW Rating” value is listed as “A (50-100)”.

For the compound `Cc1cc(/C=C/C(c2cc(Cl)cc(Cl)c2)C(F)(F)F)ccc1C(=O)NCC(=O)NC1CS(=O)(=O)C1` (stereo not shown) [AC81], the “BAW Rating” value is “A (50-100)”.
